This is an account of results in patent publication US7288556B2, “Antiproliferative 1,2,3-thiadiazole compounds” (QLT Inc., priority 2000, dated 2007).

In data set [1] the test system is chick chorioallantoic membrane. Put plainly: Chick chorioallantoic membrane (CAM) developmental angiogenesis assay. The class given is in vivo, chicken. How it is done:
e. Chick chorioallantoic membrane assay (CAM assay): was performed on fertilized chicken eggs and used as a test for angiogenesis inhibition.
Approximately 4 dozen fertilized eggs were sprayed with 70% ETOH and placed in a 180 egg incubator (GQF Sportsman incubator). The eggs were incubated “rounded-side down” and were fully rotated along the vertical axis every 30 minutes at 37° C. under 90% relative humidity.
After 4 days, the eggs were placed upside down (round side up) for 5-10 minutes, before a round hole approximately 3 centimeters in diameter was created above the pointed end or “air hole” of the egg using sterile blunt-ended forceps (“deshelling”). The inner membrane was also removed, and the embryo was visible through this opening. A small portion of the outer membrane was then carefully removed using fine-tipped forceps in order to expose the CAM. Sterile Parafilm was placed over the de-shelled opening to create an airtight seal. The eggs were returned to the incubator (with no rotation) for 2 days.
Viable eggs were then treated with control and inhibitor compounds. Gelfoam™ gelatin sterile sponge (Upjohn) or 1-2 mm discs of methylcellulose saturated with physiological saline, buffer or an appropriate dilution of the compounds under investigation. The Gelfoam™ fragments of methylcellulose discs were added directly to the surface of the developing CAM. Care was taken not to add the treatment directly over a large vessel. The shells were marked in 3 places to aid in stereotactic localization of the treatment sponge or disc. An average of 6 eggs were included for each experimental condition. The treated eggs were returned to the incubator for 2 days.
The eggs were then assessed for blood vessel growth inhibition. Photomicrographs for records and visual examination were made using a Nikon dissecting microscope with an attached Nikon 35-mm camera body.

Another data set relates to IEC-18-13 Epithelium. Put plainly: Matrigel invasion assay, IEC-18-13. The class given is cell-based. To be noted: 10 μm, 24 h, control 34.9. How it is done: (§1) c. Invasion Assays: Invasion of cells into surrounding tissue is a hallmark property of tissue remodeling. Tissue remodeling occurs during most pathological progression, including tumor progression, angiogenesis and during normal processes such as wound healing. The following invasion assays were performed using Biocoat® Cell Environments™ Matrigel Invasion Chamber 24-Well Plate Size (Becton Dickinson). The invasion chambers can be used to assess the ability of a cell to traverse an extracellular matrix under a variety of conditions. The chambers consist of a 24 well plate and […] that can be suspended in each well and act as an upper chamber. Cells place in the upper chamber insert must invade through a matrix in order to enter the lower chamber.
(§2) Cells were pre-labeled with ^3H-thymidine overnight. Typically, 5×10^5 cells were cultured overnight in 5 mls of serum-containing media spiked with 200 μl of thymidine stock solution. Cells were scraped off of the flask substratum and gently pipetted up and down to achieve single cell suspension in the medium. […]
(§3) After an incubation period of 24 h, media was carefully removed from the upper chamber insert and saved for scintillation counting. […] The relative amount of cell invasion was calculated by adding counts from the filters and lower chambers and dividing this sum by the total counts added initially to the upper chambers. […]

For data set [2], the system named is HUVEC. Put plainly: HUVEC endothelial proliferation in response to test compounds (MTS). It counts as cell-based. How it is done:
(§4) Endothelial cell cultures: Cell lines used include HUVEC, EJG and MS1 and are routinely passaged 1 to 2 times weekly. Endothelial growth media (EGM) consists of Endothelial Base Media plus all supplements (Clonetics). For testing of compounds, endothelial cells were plated on 1% gelatin-coated plates. Prior to plating, gelatin solution was added to the plates for at least 10 minutes before plating, but excess solution removed immediately before adding cells. Sterile gelatin solution consists of 1% gelatin in dH2O that has been autoclaved. Endothelial cells form a characteristic cobblestone monolayer upon confluency. Typically, a T-75 plate contains 1 million microvascular cells upon confluency.
a. HUVEC Endothelial Proliferation in Response to Test compounds: HUVEC were cultured in 96-well plates and treated with a dilution series of test compounds for potential angiogenesis-related effects.
Day 0—Endothelium are plated at 5000 cells/well and at 10,000 cells/well.
Day1—Treatments are added in EGM culture medium in an appropriate dilution series (n=6 or 12). Controls included EGM alone, serum free medium (SFM), and EGM plus 0.5% DMSO.
Day 1-2, MTS/PMS solutions were added and plates read at 4 and 24 h after treatment.

The test system of another data set is Lewis Lung cell line. As to conditions: cells inoculated subcutaneously in rear flank of mice, compound i.p. daily. How it is done: Anti-tumour efficacy and dose response in allograft and xenograft models. Cell lines were selected from an in vitro assay based on ILK expression, and growth curves characterized in vivo. Preliminary tests were performed with the Lewis Lung cell line in a murine allograft tumor model. In parallel, human xenograft tumor lines were characterized.
Cells were inoculated subcutaneously in the rear flank of mice, and the test compound was administered i.p. daily. Tumors were measured and the size calculated, with the objective being a decrease in tumor growth compared to the controls.

The subject of a further data set is IEC-18 Epithelium. Put plainly: Matrigel invasion assay, IEC-18. The class given is cell-based. As to conditions: 10 μm, 24 h, control 16.8. How it is done: as §1, §2, §3
In data set [3] the test system is HUVEC. The data set can be described thus: 3H-Thymidine incorporation proliferation assay. As to conditions: 10 μm. It counts as cell-based. As to the method: as §4
b. Thymidine incorporation proliferation assay: Cells were plated out and grown overnight. The next day the test compound or controls were added to the plates, along with diluted ^3H-thymidine added to a final concentration of 0.1 μCi/well, and the plates were incubated. After 24 h, the plates were spun down 1000 g for 10 min (for non-adherent cells) before removing the PBS. A volume of 120 μl of the scintillant fluid was added to each of the wells, and the plate was read.
(Incorporation of labelled thymidine or its analogues reports DNA synthesis.)

[4] abbreviates: HUVEC in log phase growth, 5 μm.
Setting [5] is: HUVEC in log phase growth, 10 μm.
Setting [6] is: HUVEC in log phase growth, 20 μm.

Molecules are shown by their SMILES. Marks after values point to notes of the source that are not given here.

Turning to `NC(=O)c1nnsc1Nc1ccccc1` [KP-15807, 5-Phenylamino-[1,2,3]thiadiazole-4-carboxylicacid amide], the melting point was 195 to 197 °C. In addition, in data set [1] (5 μm), the “% Inhibition” value worked out at 60%. Besides, in data set [1] (10 μm), the “% Inhibition” value amounted to 75%. In addition, the “% Inhibition” value in data set [1] (20 μm) is listed as 85%. The “% Cell Invasion” value with IEC-18-13 Epithelium came to 8%. Moreover, in the data set with HUVEC [2] (setting [4]), the “MTS Relative Absorbance 4 h” value is recorded as 1.26 +/− 0.17 and the “MTS Relative Absorbance 24 h” value is 1.22 +/− 0.09. In the data set with HUVEC [2] (setting [5]), the “MTS Relative Absorbance 4 h” value was 1.31 +/− 0.09 and the “MTS Relative Absorbance 24 h” value is recorded as 1.24 +/− 0.04. Besides, in the data set with HUVEC [2] (setting [6]), the “MTS Relative Absorbance 4 h” value is recorded as 1.25 +/− 0.03 and the “MTS Relative Absorbance 24 h” value is 1.21 +/− 0.05. In the data set with HUVEC [2] (HUVEC post-confluent, 5 μm), the “MTS Relative Absorbance 4 h” value is given as 2.06 +/− 0.20 and the “MTS Relative Absorbance 24 h” value is 1.55 +/− 0.17. Also, in the data set on HUVEC [2] (HUVEC post-confluent, 10 μm), the “MTS Relative Absorbance 4 h” value is 2.30 +/− 0.05 and the “MTS Relative Absorbance 24 h” value was 1.62 +/− 0.12. Moreover, in the data set with HUVEC [2] (HUVEC post-confluent, 20 μm), the “MTS Relative Absorbance 4 h” value was 2.52 +/− 0.05 and the “MTS Relative Absorbance 24 h” value is recorded as 1.71 +/− 0.02. In addition, the “tumor growth compared to control” value in the data set with Lewis Lung cell line is recorded as “succeeded in reducing tumor growth compared to control”. Moreover, the “% Cell Invasion” value with IEC-18 Epithelium was 9%. For the same compound, in the data set with HUVEC [3] (HUVEC in log phase growth), the “3H-Thymidine incorporation at 24 h” value is 746 +/− 200 and the “3H-Thymidine incorporation at 48 h” value is given as 1251 +/− 117. Besides, in the data set with HUVEC [3] (HUVEC post-confluent), the “3H-Thymidine incorporation at 24 h” value is listed as 571 +/− 86 and the “3H-Thymidine incorporation at 48 h” value was 452 +/− 71*.

A word on the % Inhibition: it is the share of the control response that was lost under treatment. Read a low % Inhibition as little suppression. For orientation: melting point means the temperature of the solid-liquid transition.
